The values that follow are results of earlier work, collected in patent US9877951B2, “Method for treating dementia” (College of William and Mary, priority 2015, dated 2018).

Molecules are shown by their SMILES. Like-named read-outs stand apart in the source and are kept apart here.

For data set [1] the following is noted: storage.
The test system of data set [2] is Mycobacterium tuberculosis strains. As to conditions: typical Mycobacterium tuberculosis strains.
For data set [3] the following is noted: for ability of DCS to facilitate extinction: DCS for five consecutive days.
Test in data set [4]: not given
The source holds these as a separate data set.

The conditions of data set [5]: chronic dosing at typical tuberculosis doses.

For `CC(=O)C=C(C)N[C@@H]1CONC1=O` [(R)-4-[(1-methyl-3-oxo-1-butenyl)-amino]-3-isoxazolidinone], the “stability relative to DCS” value in data set [1] is listed as “enhanced stability relative to DCS”.

On to `N[C@@H]1CON=C1O` [DCS, 3-Isoxazolidinone, 4-amino-, (4R)-(9Cl)], for which the “minimum inhibitory concentrations (MIC) in vitro” value in data set [2] was 6 to 25 µg/mL. The “benefit on Alzheimer's Disease” value (100 mg daily administration (Tsai et al.)) is recorded as “positive benefit”. Further, the “benefit for treatment of Alzheimer's Disease” value (up to 50 mg daily dosing, 410-patient trial (Fakouhi et al.)) is “did not have a significant benefit”. In addition, in data set [3] (rats exposed to DCS for 15 consecutive days), the “ability of DCS to facilitate extinction learning” value was “eliminated”. Besides, the “ability of DCS to facilitate extinction” value in data set [3] (rats, extinction paradigm 28 days later) is listed as “restored”; in data set [3] (rats, extinction paradigm two days later), “significantly decreased”. Also, the “serum concentrations generally maintained” value in data set [4] (dose of 500 mg/day) was 25000 to 30000 ng/mL. For the same compound, in data set [4] (oral capsules), the “time of peak serum concentrations after dosing” value is 3 to 8 h. For the same compound, the peak serum concentrations result in data set [4] (sub-antimicrobial doses (less than or equal to 2 mg/kg)) is reported as “less than or equal to 5 μg/mL”. The recorded side effects entry in data set [5] is “drowsiness, depression, headache, confusion, tremor, vertigo, and memory difficulties, paresthesias, and seizure”.

For `CN(C)CCCN1c2ccccc2CCc2ccccc21` [imipramine], the “effect on ability of DCS to facilitate extinction learning” value in data set [3] (rats, daily administration of imipramine for 15 days) is “blocked the ability of DCS to facilitate extinction learning”.
